The record followed here is patent US7601850B2, “Phenyl-thiophene type vitamin D receptor modulators” (Eli Lilly and Company, priority 2002, dated 2009).

One experiment concerns KERtr cells. Kind of experiment: Keratinocyte proliferation assay (BrdU incorporation). The experiment is classed as cell-based. Particulars: Homo sapiens, Keratinocyte, 72 h, KERtr human skin keratinocytes, 72 hr treatment, read-out: Kera. Prolif. IC50. Here is the method:
6. The keratinocyte proliferation assay is described in the “Assay” section of the Description, infra.
5. The Keratinocyte Proliferation Assay
This Assay is indicative for the treatment of psoriasis.
(5) The Keratinocyte Proliferation Assay:
KERtr cells (Human skin keratinocyte transformed with a retrovirus vector, obtained from ATCC) were plated in 96-well flat-bottomed plates (3000 cells/well) in 100 µl keratinocyte serum free medium supplemented with bovine pituitary extract in the absence of EGF (Life Technologies, Rockville, Md.) and incubated at 37° C. for two days. The cells were treated with various concentrations of VDR ligands (ten-fold serial dilution from 10,000 nM to 0.1 nM in triplicate), dissolved in 100 µl keratinocyte serum free medium supplemented with bovine pituitary extract in the absence of EGF and incubated at 37° C. for 72 hr. […] Potency values (IC50) values were determined as the concentration (nM) of compound that elicited a half-maximal response.

A further experiment has as its system rat osteocalcin promoter. The experiment in a line: OCN (osteocalcin) promoter assay in RG-15 (ROS 17/2.8) cells. The format is cell-based. As to the method:
4. The OCN Promoter test is described in the “Assay” section of the Description, infra.
3. The OCN (Osteocalcin) Promoter Assay
The OCN Promoter Assay is an indicator and marker for osteoporosis. Desired assay results are EC50 less than or equal to 325 nM. Preferred assay results are less than 50 nM.
(3) Materials and Method for The OCN Promoter Assay:
The activation of osteocalcin by VDR ligands was evaluated in a rat osteoblast-like cell line RG-15 (ROS 17/2.8) stably expressing rat osteocalcin promoter fused with luciferase reporter gene. The stable cell lines were established as reported before (Activation of Osteocalcin Transcription involves interaction of protein kinase A- and Protein kinase C-dependent pathways. Boguslawski, G., Hale, L. V., Yu, X.-P., Miles, R. R., Onyia, J. E., Santerre R. F., Chandrasekhar, S. J Biol. Chem. 275, 999-1006, 2000). Confluent RG-15 cells maintained in DMEM/F-12 medium (3:1) containing 5% FBS, 300 µg/ml G418 and at 37° C. under 5% CO2/95% air atmosphere were trypsinized (0.25% trypsin) and plated into white opaque 96-well cell culture plates (25000 cells/well). After 24 hr, cells (in DMEM/F-12 medium+2% FBS) were treated with various concentrations of compounds, dissolved in DMSO. The final DMSO concentration remained at 0.01% (v/v). After 48 hr treatment, the medium was removed, cells were lysed with 50 µl of lysis buffer (From Luciferase reporter assay system, Roche Diagnostics, Indianapolis, Ind.) and assayed for luciferase activity using the Luciferase Reporter Gene Assay kit from Boehringer Mannheim as per manufacturer's specifications.

Molecules are shown by their SMILES. Read-outs that look alike come from different tables or passages of the source. Bounds are passed on as bounds.

Regarding `CCC(CC)(c1ccc(OCC(O)C(C)(C)C)c(C)c1)c1cc(C)c(S(=O)(=O)NCCC(=O)O)s1` (stereo not drawn) [Ex. 142], the IC50 in the experiment on KERtr cells is 0.3 µM.

For `CCC(CC)(c1ccc(CCC(O)C(C)(C)C)c(C)c1)c1cc(C)c(C(=O)NCC(=O)O)s1` (stereo not drawn) [Ex. 177, [(5-{1-Ethyl-1-[4-(3-hydroxy-4,4-dimethyl-pentyl)-3-methyl-phenyl]-propyl}-3-methyl-thiophene-2-carbonyl)-amino]-acetic acid], in the experiment on KERtr cells, the IC50 was 0.0813 µM. Further, the EC50 in the experiment on rat osteocalcin promoter (Rattus norvegicus) came to 0.046 µM.

`CCC(CC)(c1ccc(OS(C)(=O)=O)c(C)c1)c1cc(C)c(CC[C@@H](O)C(C)(C)C)s1` [Ex. 18]: in the experiment on KERtr cells, the IC50 turned out to be 0.0245 µM. Also, in the experiment on rat osteocalcin promoter (Rattus norvegicus), the EC50 is 0.0112 µM.

Consider `CCC(CC)(c1ccc(OCS(C)(=O)=O)c(C)c1)c1cc(C)c(CCC(O)C(C)(C)C)s1` (single isomer, unassigned) [Ex. 15A], for which, in the experiment with KERtr cells, the IC50 was determined as 0.076 µM.

In the case of `CCC(CC)(c1ccc(OCC(O)C(C)(C)C)c(C)c1)c1cc(C)c(C(=O)N(C)C)s1` (stereo not drawn) [Ex. 4], in the experiment with KERtr cells, the IC50 stood at 0.122 µM. For the same compound, in the experiment on rat osteocalcin promoter (Rattus norvegicus), the half-maximal effective concentration (EC50) was found to be 0.147 µM.

For the compound `CCC(CC)(c1ccc(OCC(O)C(C)(C)C)c(C)c1)c1cc(C)c(C(=O)NCCS(C)(=O)=O)s1` (single isomer, unassigned) [Ex. 39, 5-[1-ethyl-1-[4-(2-hydroxy-3,3-dimethyl-butoxy)-3-methylphenyl]propyl]-3-methylthiophene-2-carboxylic acid (2-methylsulfonyl-ethyl) amide], in the experiment with KERtr cells, the IC50 was determined as 0.367 µM. For the same compound, the EC50 in the experiment on rat osteocalcin promoter came to 0.3 µM.

For the compound `CCC(CC)(c1ccc(OCC(=O)C(C)(C)C)c(C)c1)c1cc(C)c(S(=O)(=O)NC(C)=O)s1` [Ex. 160, 5-{1-[4-(3,3-Dimethyl-2-oxo-butoxy)-3-methyl-phenyl]-1-ethyl-propyl}-3-methyl-thiophene-2-sulfonic acid acetyl-amide], the IC50 in the experiment on KERtr cells came to 1.09 µM. In the experiment with rat osteocalcin promoter (Rattus norvegicus), the EC50 was determined as 0.0403 µM.

Consider `CCC(CC)(c1ccc(OCC(O)C(C)(C)C)c(C)c1)c1cc(C)c(C(=O)OC)s1` (stereo not drawn) [Ex. 6A], for which the IC50 with KERtr cells stood at 0.439 µM.

As for `CCC(=O)NS(=O)(=O)c1sc(C(CC)(CC)c2ccc(OCC(O)C(C)(C)C)c(C)c2)cc1C` (stereo not drawn) [Ex. 159, 5-{1-Ethyl-1-[4-(2-hydroxy-3,3-dimethyl-butoxy)-3-methyl-phenyl]-propyl}-3-methyl-thiophene-2-sulfonic acid propionyl-amide], the IC50 in the experiment with KERtr cells is 0.234 µM. Moreover, the EC50 in the experiment on rat osteocalcin promoter (Rattus norvegicus) was 0.0897 µM.

As for `CCC(CC)(c1ccc(OCC(O)C(C)(C)C)c(C)c1)c1cc(C)c(C(=O)NCC(=O)O)s1` (single isomer, unassigned) [Ex. 48], the IC50 in the experiment on KERtr cells came to 0.0715 µM.

For the compound `CCC(CC)(c1ccc(OC[S+](C)[O-])c(C)c1)c1cc(C)c(CC[C@@H](O)C(C)(C)C)s1` (stereo partly drawn) [Ex. 16], the IC50 in the experiment on KERtr cells was found to be 0.257 µM. Moreover, the EC50 in the experiment with rat osteocalcin promoter (Rattus norvegicus) stood at 0.031 µM.

As to `CCC(CC)(c1ccc(OCC(O)C(C)(C)C)c(C)c1)c1cc(C)c(S(=O)(=O)NC(C)=O)s1` (stereo not drawn) [Ex. 158, 5-{1-Ethyl-1-[4-(2-hydroxy-3,3-dimethyl-butoxy)-3-methyl-phenyl]-propyl}-3-methyl-thiophene-2-sulfonic acid acetyl-amide], in the experiment with KERtr cells, the 50% inhibitory concentration (IC50) was 0.5 µM. Also, the half-maximal effective concentration (EC50) in the experiment on rat osteocalcin promoter (Rattus norvegicus) stood at 0.085 µM.

For the compound `CCC(CC)(c1ccc(OCC(O)C(C)(C)C)c(C)c1)c1cc(C)c(C(=O)N[C@H](C)C(=O)OC)s1` (single isomer, unassigned) [Ex. 66, D-2-[(5-{1-Ethyl-1-[4-(2-hydroxy-3,3-dimethyl-butoxy)-3-methyl-phenyl]-propyl}-3-methyl-thiophene-2-carbonyl)-amino]-propionic acid methyl ester], the IC50 in the experiment with KERtr cells is 0.277 µM. Moreover, the EC50 in the experiment on rat osteocalcin promoter is 0.0284 µM.

For the compound `CCC(CC)(c1ccc(OCC(O)C(C)(C)C)c(C)c1)c1cc(C)c(CS(C)(=O)=O)s1` (stereo not drawn) [Ex. 10], in the experiment on KERtr cells, the IC50 stood at 0.025 µM. Besides, in the experiment on rat osteocalcin promoter (Rattus norvegicus), the concentration giving a half-maximal response (EC50) was 0.0513 µM.

Take `CCc1cc(C(CC)(CC)c2ccc(S(=O)(=O)NCC(=O)O)s2)ccc1OCC(O)C(C)(C)C` (stereo not drawn) [Ex. 155]: the IC50 in the experiment with KERtr cells came to 0.788 µM. The EC50 with rat osteocalcin promoter (Rattus norvegicus) amounted to 0.0184 µM.

Turning to `CCC(CC)(c1ccc(CCC(=O)O)c(C)c1)c1cc(C)c(CCC(O)C(C)(C)C)s1` (stereo not drawn) [Ex. 29], the concentration for half-maximal inhibition (IC50) in the experiment with KERtr cells is 0.0046 µM. In addition, the EC50 in the experiment on rat osteocalcin promoter (Rattus norvegicus) was 0.00865 µM.

Consider `CCC(CC)(c1ccc(OCC(O)C(C)(C)C)c(C)c1)c1cc(C)c(COCC(=O)O)s1` (stereo not drawn) [Ex. 124, 2-(5-{1-ethyl-1-[4-(2-hydroxy-3,3-dimethyl-butoxy)-3-methyl-phenyl]-propyl}-3-methyl-thiophen-2-yl-methoxy)acetic acid], for which the IC50 in the experiment on KERtr cells was 0.216 µM. In addition, in the experiment on rat osteocalcin promoter (Rattus norvegicus), the EC50 came out at 0.101 µM.

Regarding `CCC(CC)(c1ccc(OCC(O)C(C)(C)C)c(C)c1)c1cc(C)c(-c2n[nH]c(=S)o2)s1` (stereo not drawn) [Ex. 173], the IC50 in the experiment on KERtr cells turned out to be 0.478 µM.

In the case of `CCC(CC)(c1ccc(OCC(O)C(C)(C)C)c(C)c1)c1ccc(S(=O)(=O)NCC(=O)O)s1` (stereo not drawn) [Ex. 153], in the experiment with rat osteocalcin promoter (Rattus norvegicus), the EC50 worked out at 0.187 µM.

Turning to `Cc1cc(C2(c3ccc(OCC(=O)C(C)(C)C)c(C)c3)CCCCC2)ccc1OCC(=O)C(C)(C)C` [CC, 1-(4-{1-[4-(3,3-Dimethyl-2-oxo-butoxy)-3-methyl-phenyl]-cyclohexyl}-2-methyl-phenoxy)-3,3-dimethyl-butan-2-one, reference compound], in the experiment with rat osteocalcin promoter (Rattus norvegicus), the EC50 is over 1 µM.

For `CCC(CC)(c1ccc(OCC(O)C(C)(C)C)c(C)c1)c1cc(C)c(C(=O)N[C@H](C)C(=O)OC)s1` (single isomer, unassigned) [Ex. 56, D-2-[(5-{1-Ethyl-1-[4-(2-hydroxy-3,3-dimethyl-butoxy)-3-methyl-phenyl]-propyl}-3-methyl-thiophene-2-carbonyl)-amino]-propionic acid methyl ester], in the experiment on rat osteocalcin promoter, the EC50 is 0.164 µM.

In the case of `CCC(CC)(c1ccc(OCC(=O)C(C)(C)C)c(C)c1)c1cc(C)c(S(=O)(=O)NCCC(=O)O)s1` [Ex. 144], the EC50 with rat osteocalcin promoter (Rattus norvegicus) worked out at 0.0292 µM.

With `CCC(CC)(c1ccc(OCC(O)C(C)(C)C)c(C)c1)c1cc(C)c(C(=O)N[C@H](C)C(=O)O)s1` (stereo partly drawn) [Ex. 57, D-2-[(5-{1-Ethyl-1-[4-(2-hydroxy-3,3-dimethyl-butoxy)-3-methyl-phenyl]-propyl}-3-methyl-thiophene-2-carbonyl)-amino]-propionic acid], the EC50 in the experiment on rat osteocalcin promoter was found to be 0.115 µM.

Take `CCc1cc(C(CC)(CC)c2ccc(C(=O)O)s2)ccc1OCC(C)(O)C(C)(C)C` (stereo not drawn) [Ex. 107, 3′-[4-(2-hydroxy-2,3,3-trimethylbutoxy)-3-ethylphenyl]-3′-[5-carboxy-thiophen-2-yl]pentane]: the EC50 with rat osteocalcin promoter (Rattus norvegicus) is 0.0423 µM.

With `CCC(O)(CC)COc1ccc(C(CC)(CC)c2cc(C)c(C(=O)NCC(=O)O)s2)cc1C` [Ex. 53, 2-[(5-{1-Ethyl-1-[4-(2-ethyl-2-hydroxy-butoxy)-3-methyl-phenyl]-propyl}-3-methyl-thiophene-2-carbonyl)-amino]-acetic acid], the EC50 with rat osteocalcin promoter (Rattus norvegicus) was found to be 0.267 µM.

Take `CCC(CC)(c1ccc(OCC(O)C(C)(C)C)c(C)c1)c1cc(C)c(CS(C)(=O)=O)s1` (single isomer, unassigned) [Ex. 11B]: the IC50 in the experiment with KERtr cells is 0.216 µM.

Turning to `CCC(CC)(c1ccc(C(=O)OC)c(C)c1)c1cc(C)c(CCC(=O)C(C)(C)C)s1` [Ex. 20], the concentration giving a half-maximal response (EC50) in the experiment on rat osteocalcin promoter (Rattus norvegicus) was found to be 0.862 µM.

Regarding `CCOC(=O)CSCc1sc(C(CC)(CC)c2ccc(OCC(=O)C(C)(C)C)c(C)c2)cc1C` [Ex. 183, (5-{1-[4-(3,3-Dimethyl-2-oxo-butoxy)-3-methyl-phenyl]-1-ethyl-propyl}-3-methyl-thiophen-2-ylmethylsulfanyl)-acetic acid ethyl ester], in the experiment on rat osteocalcin promoter (Rattus norvegicus), the EC50 was determined as 0.0386 µM.

As to `CCC(CC)(c1ccc(OCC(=O)C(C)(C)C)c(C)c1)c1cc(C)c(S(=O)(=O)/N=C/N(C)C)s1` [Ex. 161], the EC50 in the experiment on rat osteocalcin promoter (Rattus norvegicus) was 0.077 µM.

For `CCC(CC)(c1ccc(C(=O)NCC(=O)OC)c(C)c1)c1cc(C)c(CCC(O)C(C)(C)C)s1` (stereo not drawn) [Ex. 24], the EC50 with rat osteocalcin promoter (Rattus norvegicus) turned out to be 0.0047 µM.

`CCC(CC)(c1ccc(OCC(=O)C(C)(C)C)c(C)c1)c1cc(C)c(C(=O)N(C)CC(=O)O)s1` [Ex. 118, N-methyl-2-[(5-{1-[4-(3,3-Dimethyl-2-oxo-butoxy)-3-methyl-phenyl]-1-ethyl-propyl}-3-methyl-thiophene-2-carbonyl)-methylamino]-acetic acid]: in the experiment with rat osteocalcin promoter (Rattus norvegicus), the EC50 turned out to be 0.0323 µM.

For the compound `CCC(CC)(c1ccc(OCC(O)C(C)(C)C)c(C)c1)c1cc(C)c(S(=O)(=O)N[C@H](C)C(=O)OC)s1` (stereo partly drawn) [Ex. 150], in the experiment with rat osteocalcin promoter (Rattus norvegicus), the EC50 was 0.0552 µM.
